In patent publication US20200289514A1, “Novel Pyrazolo Pyrimidine Derivatives” (Novartis AG, priority 2015, published 2020):

Columns and labels:
Human IL2 promoter = Human IL2 promoter reporter gene assay (RGA) in Jurkat cells; assay type: cell-based; settings: Jurkat clone K22 290_H23, anti-CD28 mAb + PMA, 5.5 h
Protocol: Human IL2 Promoter Reporter Gene Assay (RGA) in Jurkat Cells
The transfected Jurkat clone K22 290_H23 was propagated in RPMI 1640 supplemented with 10% heat inactivated fetal calf serum, 50 μM 2-mercaptoethanol and 1 mg/ml Geneticin. The cell concentration should not exceed 1×10e6/ml during culturing. The cells should not exceed passage 30. Prior to the assay the cells were washed and prepared to the concentration of 2×10e6 cells/ml.
Compound dilutions were made as 2×-concentrated solutions then diluted ½ by addition to cells. Two hundred and fifty μl of compound dilution and 250 μl of cells were mixed together in wells of a 96-deep well plate. Cells/compounds premix were incubated 30 min at 37° C. and 5% CO2 directly in the deep well plate.
After pre-incubation of cells with compounds, cells were stimulated with anti-CD28 mAb (clone 15E8) at 3 μg/ml+PMA at 1 μg/ml. Both co-stimulants were diluted in culture medium at a 10×-concentrated solution. 10 μl of co-stimulants were pipetted into the white 96-well plates and 100 μl of cell/compound mix was immediately added in duplicates. The cells were stimulated for 5.5 h at 37° C. and 5% CO2.
After cell stimulation, 50 μl of BriteLitePlus reagent (Perkin Elmer) was added to each well and the bioluminescence was measured with a Wallac EnVision reader (Perkin Elmer).

[1] = target: T1, C-domain of MALT1 (amino acids 329-824) (Homo sapiens, UniProt Q9UDY8); assay: MALT1 Biochemical Assay - Version 1 (fluorescence lifetime)
T1 sequence (Q9UDY8 329-824): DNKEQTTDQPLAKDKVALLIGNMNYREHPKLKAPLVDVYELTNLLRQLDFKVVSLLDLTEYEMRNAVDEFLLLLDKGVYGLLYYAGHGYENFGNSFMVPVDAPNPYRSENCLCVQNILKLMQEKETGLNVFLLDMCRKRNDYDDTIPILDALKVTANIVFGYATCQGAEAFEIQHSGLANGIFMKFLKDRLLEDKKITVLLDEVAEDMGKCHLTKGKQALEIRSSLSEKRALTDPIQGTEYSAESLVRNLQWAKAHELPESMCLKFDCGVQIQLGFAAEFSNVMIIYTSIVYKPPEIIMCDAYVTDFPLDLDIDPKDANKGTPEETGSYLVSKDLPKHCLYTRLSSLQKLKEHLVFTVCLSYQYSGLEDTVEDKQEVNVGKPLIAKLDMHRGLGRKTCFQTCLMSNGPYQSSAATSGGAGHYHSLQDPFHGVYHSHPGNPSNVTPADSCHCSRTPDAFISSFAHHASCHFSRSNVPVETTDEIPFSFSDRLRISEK
Protocol: The readout parameter is the increase of fluorescence lifetime over time, proportional to enzyme activity.
The assay employs a short peptide substrate labeled with the single fluorophore PT14 as a fluorescence lifetime probe sensitive to the cleavage state of the substrate (PT14: 6-(9-oxo-9H-acridin-10-yl)-hexanoate, AssayMetrics, UK). […] Test compounds were dissolved in 100% (v/v) DMSO or a mixture containing 90% (v/v) DMSO and 10% (v/v) H2O at a stock concentration of 100 mM. Serial dilutions of test compounds were prepared using either 100% (v/v) DMSO or a mixture containing 90% (v/v) DMSO and 10% (v/v) H2O.
where y is the %-inhibition at the inhibitor concentration, x. A1 is the lowest inhibition value, and A2 the maximum inhibition value. The exponent, p, is the Hill coefficient.

Compound | IC50 (Human IL2 promoter) | IC50 [1]
CO[C@@H](C)c1c(NC(=O)Nc2ccnc(C(F)(F)F)c2)cnc2cc(Cl)nn12 [Example 3, (S)-1-(2-chloro-7-(1-methoxyethyl)pyrazolo[1,5-a]pyrimidin-6-yl)-3-(2-(trifluoromethyl)pyridin-4-yl)urea] | 36 nM | 
CC(C)c1c(NC(=O)Nc2cnc(-n3nccn3)c(Cl)c2)cnc2cc(Cl)nn12 [Example 4, 1-(5-chloro-6-(2H-1,2,3-triazol-2-yl)pyridin-3-yl)-3-(2-chloro-7-isopropylpyrazolo[1,5-a]pyrimidin-6-yl)urea] | 103 nM | 
COc1ncc(NC(=O)Nc2cnc3cc(F)nn3c2[C@H](C)OC)cc1C#N [Example 6, (S)-1-(5-cyano-6-methoxypyridin-3-yl)-3-(2-fluoro-7-(1-methoxyethyl)pyrazolo[1,5-a]pyrimidin-6-yl)urea] | 41 nM | 4 nM
COCCO[C@@H](C)c1c(NC(=O)Nc2cnc(-n3nccn3)c(C(F)(F)F)c2)cnc2cc(Cl)nn12 [Example 7, (S)-1-(6-(2H-1,2,3-triazol-2-yl)-5-(trifluoromethyl)pyridin-3-yl)-3-(2-chloro-7-(1-(2-methoxyethoxy)ethyl)pyrazolo[1,5-a]pyrimidin-6-yl)urea] | 27 nM | 7 nM
CO[C@H](c1c(NC(=O)Nc2cnc(-n3nccn3)c(C(F)(F)F)c2)cnc2cc(Cl)nn12)C(C)C [Example 8, (S)-1-(6-(2H-1,2,3-triazol-2-yl)-5-(trifluoromethyl)pyridin-3-yl)-3-(2-chloro-7-(1-methoxy-2-methylpropyl)pyrazolo [1,5-a]pyrimidin-6-yl)urea] | 38 nM | 2 nM
COCC1(c2c(NC(=O)Nc3cncc(C#N)c3)cnc3cc(Cl)nn23)CC1 [Example 9, 1-(2-chloro-7-(1-(methoxymethyl)cyclopropyl)pyrazolo[1,5-a]pyrimidin-6-yl)-3-(5-cyanopyridin-3-yl)urea] | 93 nM | 29 nM
CO[C@@H](C)[C@H](OC)c1c(NC(=O)Nc2cnc(-n3nccn3)c(Cl)c2)cnc2cc(Cl)nn12 [Example 10, 1-(5-chloro-6-(2H-1,2,3-triazol-2-yl)pyridin-3-yl)-3-(2-chloro-7-((1R, 2S)-1,2-dimethoxypropyl)pyrazolo[1,5-a]pyrimidin-6-yl) urea] | 22 nM | 
CO[C@@H](C)c1c(NC(=O)Nc2cnc(-n3nccn3)c(C#N)c2)cnc2cc(Cl)nn12 [Example 11, (S)-1-(2-chloro-7-(1-methoxyethyl)pyrazolo[1,5-a]pyrimidin-6-yl)-3-(5-cyano-6-(2H-1,2,3-triazol-2-yl)pyridin-3-yl)urea] | 12 nM | 2 nM
CO[C@@H](C)c1c(NC(=O)Nc2cncc(C#N)c2)cnc2cc(F)nn12 [Example 12, (S)-1-(5-cyanopyridin-3-yl)-3-(2-fluoro-7-(1-methoxyethyl)pyrazolo[1,5-a]pyrimidin-6-yl)urea] | 73 nM | 31 nM
CC(=O)N1CC[C@@H](O[C@@H](C)c2c(NC(=O)Nc3cnc(-n4nccn4)c(Cl)c3)cnc3cc(Cl)nn23)C1 [Example 13, 1-(7-((S)-1-(((R)-1-acetylpyrrolidin-3-yl)oxy)ethyl)-2-chloropyrazolo[1,5-a]pyrimidin-6-yl)-3-(5-chloro-6-(2H-1,2,3-triazol-2-yl)pyridin-3-yl)urea] | 88 nM | 23 nM
CO[C@H](c1c(NC(=O)Nc2cnc(-n3nccn3)c(Cl)c2)cnc2cc(F)nn12)C(C)C [Example 14, (S)-1-(5-chloro-6-(2H-1,2,3-triazol-2-yl)pyridin-3-yl)-3-(2-fluoro-7-(1-methoxy-2-methylpropyl)pyrazolo [1,5-a]pyrimidin-6-yl)urea] | 6 nM | 3 nM
CO[C@H](c1c(NC(=O)Nc2cnc(-n3nccn3)c(C#N)c2)cnc2cc(C)nn12)C(C)C [Example 15, (S)-1-(5-cyano-6-(2H-1,2,3-triazol-2-yl)pyridin-3-yl)-3-(7-(1-methoxy-2-methylpropyl)-2-methylpyrazolo[1,5-a]pyrimidin-6-yl)urea] | 12 nM | 9 nM
COc1ncc(NC(=O)Nc2cnc3cc(Cl)nn3c2[C@H](C)OC)cc1C#N [Example 16, (S)-1-(2-chloro-7-(1-methoxyethyl)pyrazolo [1,5-a]pyrimidin-6-yl)-3-(5-cyano-6-methoxypyridin-3-yl)urea] | 20 nM | 3 nM
CO[C@@H](C)c1c(NC(=O)Nc2cc(C(C)O)nc(C(F)(F)F)c2)cnc2cc(F)nn12 (stereo partly drawn) [Example 17, 1-(2-fluoro-7-((S)-1-methoxyethyl)pyrazolo [1,5-a]pyrimidin-6-yl)-3-(2-(1-hydroxyethyl)-6-(trifluoromethyl)pyridin-4-yl)urea] | 87 nM | 20 nM
CO[C@@H](C)c1c(NC(=O)Nc2cnc(-n3nccn3)c(C#N)c2)cnc2cc(F)nn12 [Example 18, (S)-1-(5-cyano-6-(2H-1,2,3-triazol-2-yl)pyridin-3-yl)-3-(2-fluoro-7-(1-methoxyethyl)pyrazolo [1,5-a]pyrimidin-6-yl)urea] | 19 nM | 4 nM
COCC(OC)c1c(NC(=O)Nc2cnc(-n3nccn3)c(C#N)c2)cnc2cc(Cl)nn12 (centres unmarked) [Example 19, 1-(2-chloro-7-(1,2-dimethoxyethyl)pyrazolo [1,5-a]pyrimidin-6-yl)-3-(5-cyano-6-(2H-1,2,3-triazol-2-yl)pyridin-3-yl)urea] | 56 nM | 9 nM
CO[C@@H](C)c1c(NC(=O)Nc2ccnc(C(O)C(F)(F)F)c2)cnc2cc(Cl)nn12 (stereo partly drawn) [Example 20, 1-(2-chloro-7-((S)-1-methoxyethyl)pyrazolo [1,5-a]pyrimidin-6-yl)-3-(2-(2,2,2-trifluoro-1-hydroxyethyl)pyridin-4-yl)urea] | 101 nM | 9 nM
COCCOc1ncc(Cl)cc1NC(=O)Nc1cnc2cc(Cl)nn2c1[C@H](C)OC [Example 21, (S)-1-(5-chloro-2-(2-methoxyethoxy)pyridin-3-yl)-3-(2-chloro-7-(1-methoxyethyl)-pyrazolo[1,5-a]pyrimidin-6-yl)urea] | 47 nM | 9 nM
COc1ncc(NC(=O)Nc2cnc3cc(C)nn3c2[C@@H](OC)C(C)C)cc1C#N [Example 22, (S)-1-(5-cyano-6-methoxypyridin-3-yl)-3-(7-(1-methoxy-2-methylpropyl)-2-methylpyrazolo[1,5-a]pyrimidin-6-yl)urea] | 25 nM | 7 nM
CO[C@@H](C)c1c(NC(=O)Nc2ccnc(C#N)c2)cnc2cc(F)nn12 [Example 23, (S)-1-(2-cyanopyridin-4-yl)-3-(2-fluoro-7-(1-methoxyethyl)pyrazolo [1,5-a]pyrimidin-6-yl)urea] | 42 nM | 16 nM
COc1ncc(NC(=O)Nc2cnc3cc(C)nn3c2[C@H](C)OC)cc1C#N [Example 24, (S)-1-(5-cyano-6-methoxypyridin-3-yl)-3-(7-(1-methoxyethyl)-2-methylpyrazolo[1,5-a]pyrimidin-6-yl)urea] | 62 nM | 14 nM
CO[C@@H](C)[C@H](OC)c1c(NC(=O)Nc2cnc(-n3nccn3)c(C#N)c2)cnc2cc(Cl)nn12 [Example 25, 1-(2-chloro-7-((1R, 2S)-1,2-dimethoxypropyl)pyrazolo[1,5-a]pyrimidin-6-yl)-3-(5-cyano-6-(2H-1,2,3-triazol-2-yl)pyridin-3-yl)urea] | 21 nM | 4 nM
